In patent US8227203B2, “Method for testing or screening protein synthesis inhibitors” (The Trustees of the University of Pennsylvania, priority 2007, dated 2012):

How the values were obtained:
HeLa PV cells = experiment: SMN sub-cellular localization by indirect immunofluorescence (anti-SMN 2B1); format: cell-based; conditions: for redistribution of SMN from the cytoplasm to the nucleus (nuclear accumulation of SMN): HeLa cells, short treatment (2-6 hours), immunofluorescence; for nuclear translocation of SMN at longer times: longer times (>24 hr), FIG. 5a; for completeness of SMN nuclear accumulation compared with CHX: ER stress inducers, FIG. 6B
Protocol: (§1) HeLa PV were cultured in Dulbecco's modified Eagle's medium (Invitrogen) supplemented with 10% fetal bovine serum (Invitrogen). For screening, cells were seeded onto 384-well plates or, for specific experiments, on glass coverslips the day before treatment. Compounds were added directly into the culture medium to the indicated concentration and the cells were then maintained at 37° C. in a 5% CO2 humidified atmosphere for the duration of the treatment. Dispensing of compounds and other automatic liquid handling steps were performed with a Beckman FX multi-channel system equipped with Hudson Crane robotic systems.
(§2) The following mouse monoclonal antibodies were used for indirect immunofluorescence: 2B1 (anti-SMN), 2E17 (anti-Gemin2), 12H12 (anti-Gemin3), 10G11 (anti-Gemin5), 6E2 (anti-Gemin7), 10E10 (anti-PABP), 6BG10 (anti-FXR1), Y12 (anti-Sm) and 9H10 (anti-hnRNP A1). An affinity-purified rabbit polyclonal antibody was used to detect Gemin6.
(§3) Indirect immunofluorescence on HeLa PV cells was performed as follows: HeLa cells, plated on glass coverslips, were briefly washed with PBS, fixed in 2% formaldehyde/PBS for 20 minutes at room temperature, permeabilized in 0.5% Triton X-100/PBS for 5 min at room temperature. Cells were blocked in 3% bovine serum albumin for 1 hour at room temperature. Double-label immunofluorescence experiments were performed by separate sequential incubations of each primary antibody, diluted in PBS containing 3% bovine serum albumin, followed by the specific secondary coupled to fluorescein isothiocyanate or TXRD. All incubations were at room temperature for 1 hour. Indirect epifluorescence microscopy was performed with a Nikon Eclipse E800 microscope. Digital images were collected with a Cook Sensicam high performance camera and processed with the IP laboratory software. Processing of samples for immunofluorescence microscopy on cells cultured in 384-well plates was automated and performed with the aid of microplate washers (ELX405, Bio-Tek) in a similar manner to that previously used for individual samples on glass slides. The cells were also stained with DAPI to allow definition of the nucleus in each cell. Digital images were acquired with an automated microscopy and analysis system (IN Cell Analyzer 1000, GE Healthcare). Images were analyzed using automated algorithms with parameters set to calculate mean pixel intensity in each nucleus (defined by DAPI staining and acquired in a separate channel), cytoplasm, and total cell, as well as the relevant calculated ratios of these values.
Based on the results obtained in Example 1, a library of ˜5,000 biologically active small molecules was screened on HeLa cells in 384-well plates. Each well was incubated with a different compound (at 10 μM) and the cells were processed for indirect immunofluorescence. Digital images were collected from six fields in each well and analyzed using imaging algorithms for multiple parameters including relative nuclear and cytoplasmic intensities, and number, size and signal intensity of Gems. DAPI-stained images were collected in a separate channel to define the boundary of each nucleus. Images of individual fields in wells were flagged by the software as showing a significant change in SMN sub-cellular localization. These individual wells were examined directly, and active compounds were re-tested for verification (FIG. 2).

HeLa cells [1] = experiment: Localization of other nuclear and cytoplasmic proteins (hnRNP A1, PABP, FXR1, snRNPs) by immunostaining; format: cell-based; conditions: 6 hrs of 10 μM CHX (FIG. 3c)
Protocol: as §2
Indirect immunofluorescence on HeLa PV cells was performed as follows: HeLa cells, plated on glass coverslips, were briefly washed with PBS, fixed in 2% formaldehyde/PBS for 20 minutes at room temperature, permeabilized in 0.5% Triton X-100/PBS for 5 min at room temperature. Cells were blocked in 3% bovine serum albumin for 1 hour at room temperature. Double-label immunofluorescence experiments were performed by separate sequential incubations of each primary antibody, diluted in PBS containing 3% bovine serum albumin, followed by the specific secondary coupled to fluorescein isothiocyanate or TXRD. All incubations were at room temperature for 1 hour. Indirect epifluorescence microscopy was performed with a Nikon Eclipse E800 microscope. […] Images were analyzed using automated algorithms with parameters set to calculate mean pixel intensity in each nucleus (defined by DAPI staining and acquired in a separate channel), cytoplasm, and total cell, as well as the relevant calculated ratios of these values.

[2] = system: Hela cells with reduced SMN by RNAi; experiment: SMN localization in HeLa cells with reduced SMN by RNAi (shRNA targeting SMN); format: cell-based; conditions: vs cells expressing non-targeting shRNA; 10 μM CHX 6 hours (FIG. 7)
Protocol: as §3, with “The cells were also stained with DAPI to allow definition of the nucleus in each cell. Digital images were acquired with an automated microscopy and analysis system (IN Cell Analyzer 1000, GE Healthcare).” left out

HeLa cells [3] = experiment: Sub-cellular localization of Gemins by immunostaining; format: cell-based
Protocol: as §1, with “systems. […]” for “systems.”
Indirect immunofluorescence on HeLa PV cells was performed as follows: HeLa cells, plated on glass coverslips, were briefly washed with PBS, fixed in 2% formaldehyde/PBS for 20 minutes at room temperature, permeabilized in 0.5% Triton X-100/PBS for 5 min at room temperature. […] Images were analyzed using automated algorithms with parameters set to calculate mean pixel intensity in each nucleus (defined by DAPI staining and acquired in a separate channel), cytoplasm, and total cell, as well as the relevant calculated ratios of these values. […]

HeLa cells [4] = experiment: Cell viability / toxicity of treated cells; conditions: overnight treatment with 10 μM CHX

CCOC(=O)CN1C(=O)CC(C[C@@H](O)[C@@H]2C[C@@H](C)C[C@H](C)C2=O)CC1=O [cycloheximide-N-ethylethanoate]
redistribution of SMN from the cytoplasm to the nucleus (nuclear accumulation of SMN) (HeLa PV cells): did not show any effect

C[C@@H]1C[C@@H]([C@H](O)CC2CC(=O)NC(=O)C2)C(=O)[C@@H](C)C1 [cycloheximide]
localization of hnRNP A1, PABP, FXR1 and snRNPs (HeLa cells [1]): not significantly affected | relation of nuclear accumulation of SMN to inhibition of protein synthesis (HeLa PV cells): proportional to the extent of inhibition of protein synthesis | concentration dependence of SMN redistribution from the cytoplasm to the nucleus (HeLa PV cells; 0.1-40 μM (FIG. 3a, b)): concentration-dependent | treatment time after which the effect on SMN redistribution was evident (HeLa PV cells; HeLa PV cells, 10 μM CHX (FIG. 3a)): 2 h | redistribution of SMN from the cytoplasm to the nucleus (nuclear accumulation of SMN) (HeLa PV cells): most striking accumulation of SMN in the nucleus | SMN remaining in the cytoplasm (HeLa PV cells; after 8 or more hours of treatment): little SMN detected in the cytoplasm | reversibility of SMN nuclear accumulation (HeLa PV cells; cells washed and placed in fresh medium devoid of cycloheximide): reversible | SMN localization after overnight treatment (HeLa PV cells; overnight treatment with 10 μM CHX): all of the SMN was localized to the nucleus | SMN nuclear accumulation in cells with reduced SMN [2]: showed a similar effect | nuclear accumulation of SMN complex components (Gemins) (HeLa cells [3]; 6 hours 10 μM CHX (FIG. 4)): causes most of the components of the SMN complex to accumulate in the nucleus | cell viability (HeLa cells [4]): no reduction in cell viability

CC[C@H]1CN2CCc3cc(OC)c(OC)cc3[C@@H]2C[C@@H]1C[C@H]1NCCc2cc(OC)c(OC)cc21 [emetine]
SMN localization (FIG. 6b) (HeLa PV cells; 10 μM): nuclear accumulation | redistribution of SMN from the cytoplasm to the nucleus (nuclear accumulation of SMN) (HeLa PV cells): showed the same effect as cycloheximide

COc1ccc(C[C@H](N)C(=O)N[C@H]2[C@@H](O)[C@H](n3cnc4c(N(C)C)ncnc43)O[C@@H]2CO)cc1 [puromycin]
SMN localization (FIG. 6b) (HeLa PV cells; 10 μM): nuclear accumulation | redistribution of SMN from the cytoplasm to the nucleus (nuclear accumulation of SMN) (HeLa PV cells): showed the same effect as cycloheximide

O=C(CCCCCN1C(=O)c2cccc3cccc(c23)C1=O)NO [scriptaid]
nuclear translocation of SMN at longer times (HeLa PV cells): caused the same effect as protein synthesis inhibitors

C/C=C(/C)C(=O)O[C@H]1C(C)=C2[C@H]([C@@H]1OC(=O)CCCCCCC)[C@@](C)(OC(C)=O)C[C@H](OC(=O)CCC)[C@@]1(O)[C@H]2OC(=O)[C@@]1(C)O [thapsigargin]
SMN localization (FIG. 6b) (HeLa PV cells; 10 μM): nuclear accumulation | completeness of SMN nuclear accumulation compared with CHX (HeLa PV cells): not as complete as that seen after treatment with high levels of CHX | redistribution of SMN from the cytoplasm to the nucleus (nuclear accumulation of SMN) (HeLa PV cells): caused SMN to accumulate in the nucleus

CC(/C=C/C(=O)NO)=C\[C@@H](C)C(=O)c1ccc(N(C)C)cc1 [trichostatin A]
nuclear translocation of SMN at longer times (HeLa PV cells): caused the same effect as protein synthesis inhibitors

CCCC(CCC)C(=O)O [valproic acid]
concentration dependence of nuclear localization of SMN (HeLa PV cells; 2-10 mM VPA (FIG. 5b)): clear concentration dependence effect | nuclear translocation of SMN at longer times (HeLa PV cells): caused the same effect as protein synthesis inhibitors | localization of Gemin3 and Gemin5 (HeLa cells [3]; 24 hour treatment, 10 mM VPA (FIG. 5c)): remain predominantly cytoplasmic

tunicamycin
SMN localization (FIG. 6b) (HeLa PV cells; 10 μg/ml): nuclear accumulation | completeness of SMN nuclear accumulation compared with CHX (HeLa PV cells): not as complete as that seen after treatment with high levels of CHX | redistribution of SMN from the cytoplasm to the nucleus (nuclear accumulation of SMN) (HeLa PV cells): caused SMN to accumulate in the nucleus
